Key:
[1] = In vitro antiarthritic activity assessed as inhibition of bovine serum albumin denaturation at 400 ug/mL incubated for 20 mins at 37 degC following rise in temperature up to 57 degC for 3 mins by UV-Visible spectrophotometry; assay type: functional
[2] = Antiinflammatory activity in human RBC assessed as membrane stabilization at 200 ug/mL after 30 mins by UV-Visible spectrophotometry; assay type: functional, Erythrocyte
Salmonella typhimurium [3] = assay: Mutagenic activity in Salmonella typhimurium TA 100 assessed as increase in revertants at 0.039 to 5 mg/plate after 48 hrs by Ames test relative to control; assay type: toxicity, organism-based; settings: salmonella enterica subsp. enterica serovar typhimurium
[4] = Antiinflammatory activity in human RBC assessed as membrane stabilization at 50 ug/mL after 30 mins by UV-Visible spectrophotometry; assay type: functional, Erythrocyte
Salmonella typhimurium [5] = assay: Mutagenic activity in Salmonella typhimurium TA 98 assessed as increase in revertants at 0.012 to 1.660 mg/plate after 48 hrs by Ames test relative to control; assay type: toxicity, organism-based; settings: salmonella enterica subsp. enterica serovar typhimurium
Salmonella typhimurium [6] = assay: Mutagenic activity in Salmonella typhimurium TA 98 assessed as increase in revertants at 0.039 to 5 mg/plate after 48 hrs by Ames test in presence of S9 liver fraction relative to control; assay type: toxicity, organism-based; settings: salmonella enterica subsp. enterica serovar typhimurium
[7] = Antiinflammatory activity in human RBC assessed as membrane stabilization at 100 ug/mL after 30 mins by UV-Visible spectrophotometry; assay type: functional, Erythrocyte
Salmonella typhimurium [8] = assay: Mutagenic activity in Salmonella typhimurium TA 100 assessed as increase in revertants at 0.012 to 1.660 mg/plate after 48 hrs by Ames test in presence of S9 liver fraction relative to control; assay type: toxicity, organism-based; settings: salmonella enterica subsp. enterica serovar typhimurium
Salmonella typhimurium [9] = assay: Mutagenic activity in Salmonella typhimurium TA 98 assessed as increase in revertants at 0.012 to 1.660 mg/plate after 48 hrs by Ames test in presence of S9 liver fraction relative to control; assay type: toxicity, organism-based; settings: salmonella enterica subsp. enterica serovar typhimurium
Erythrocyte = assay: Antiinflammatory activity in human RBC assessed as membrane stabilization after 30 mins by UV-Visible spectrophotometry; assay type: functional
[10] = In vitro antiarthritic activity assessed as inhibition of bovine serum albumin denaturation at 100 ug/mL incubated for 20 mins at 37 degC following rise in temperature up to 57 degC for 3 mins by UV-Visible spectrophotometry; assay type: functional
[11] = In vitro antiarthritic activity assessed as inhibition of bovine serum albumin denaturation at 50 ug/mL incubated for 20 mins at 37 degC following rise in temperature up to 57 degC for 3 mins by UV-Visible spectrophotometry; assay type: functional
Salmonella typhimurium [12] = assay: Mutagenic activity in Salmonella typhimurium TA 100 assessed as increase in revertants at 0.012 to 1.660 mg/plate after 48 hrs by Ames test relative to control; assay type: toxicity, organism-based; settings: salmonella enterica subsp. enterica serovar typhimurium
[13] = In vitro antiarthritic activity assessed as inhibition of bovine serum albumin denaturation at 800 ug/mL incubated for 20 mins at 37 degC following rise in temperature up to 57 degC for 3 mins by UV-Visible spectrophotometry; assay type: functional
[14] = In vitro antiarthritic activity assessed as inhibition of bovine serum albumin denaturation at 200 ug/mL incubated for 20 mins at 37 degC following rise in temperature up to 57 degC for 3 mins by UV-Visible spectrophotometry; assay type: functional
Salmonella typhimurium [15] = assay: Mutagenic activity in Salmonella typhimurium TA 100 assessed as increase in revertants at 0.039 to 5 mg/plate after 48 hrs by Ames test in presence of S9 liver fraction relative to control; assay type: toxicity, organism-based; settings: salmonella enterica subsp. enterica serovar typhimurium
Salmonella typhimurium [16] = assay: Mutagenic activity in Salmonella typhimurium TA 98 assessed as increase in revertants at 0.039 to 5 mg/plate after 48 hrs by Ames test relative to control; assay type: toxicity, organism-based; settings: salmonella enterica subsp. enterica serovar typhimurium
[17] = Antiinflammatory activity in human RBC assessed as membrane stabilization at 10 ug/mL after 30 mins by UV-Visible spectrophotometry; assay type: functional, Erythrocyte
[18] = In vitro antiarthritic activity assessed as inhibition of bovine serum albumin denaturation incubated for 20 mins at 37 degC following rise in temperature up to 57 degC for 3 mins by UV-Visible spectrophotometry; assay type: functional

Structure (SMILES) | inhibition [1] | Activity [2] | Ratio (Salmonella typhimurium [3]) | Activity [4] | Ratio (Salmonella typhimurium [5]) | Ratio (Salmonella typhimurium [6]) | Activity [7] | Ratio (Salmonella typhimurium [8]) | Ratio (Salmonella typhimurium [9]) | Activity (Erythrocyte) | inhibition [10] | inhibition [11] | Ratio (Salmonella typhimurium [12]) | inhibition [13] | inhibition [14] | Ratio (Salmonella typhimurium [15]) | Ratio (Salmonella typhimurium [16]) | Activity [17] | inhibition [18]
O=C1NCc2ccc(cc2)-c2cccc(c2)-c2ccc(cc2)CNC(=O)c2cccc(c2)OCc2ccc(cc2)-c2cccc(c2)-c2ccc(cc2)COc2cccc1c2 | 68.6% | 91.59% | <= 2 | 71.74% | <= 2 | <= 2 | 82.51% | <= 2 | <= 2 | Dose-dependent effect | 25.2% | 12.6% | <= 2 | 78.2% | 48.5% | <= 2 | <= 2 | 61.89% | Dose-dependent effect
O=C1COc2ccc3ccc(cc3c2)OCC(=O)NCc2ccc(cc2)-c2cccc(c2)-c2ccc(cc2)CN1 | 84.3% | 97.2% | – | 85.5% | – | – | 90.9% | – | – | Dose-dependent effect | 49.5% | 20.1% | – | 90.6% | 67.9% | – | – | 76.5% | Dose-dependent effect
O=C1NCc2ccc(cc2)-c2cccc(c2)-c2ccc(cc2)CNC(=O)c2cccc(c2)OCc2cccc(c2)COc2cccc1c2 | 78.3% | 93.03% | – | 72.53% | – | – | 83.07% | – | – | Dose-dependent effect | 44.8% | 19.4% | – | 90.5% | 63.4% | – | – | 64.27% | Dose-dependent effect
O=C1NCc2ccc(cc2)-c2cccc(c2)-c2ccc(cc2)CNC(=O)c2cccc(c2)OCc2cccc(n2)COc2cccc1c2 | 70% | 95.1% | – | 76.93% | – | – | 84.73% | – | – | Dose-dependent effect | 38.2% | 22% | – | 82.4% | 56.3% | – | – | 70.23% | Dose-dependent effect
O=C(O)Cc1ccccc1Nc1c(Cl)cccc1Cl | 21.3% | – | – | – | – | – | – | – | – | – | 10.9% | 5.3% | – | 76.5% | 15% | – | – | – | –
O=C1NCc2ccc(cc2)-c2cccc(c2)-c2ccc(cc2)CNC(=O)c2cccc(c2)OCc2ccc(cc2)COc2cccc1c2 | 67.7% | 91.8% | – | 66.7% | – | – | 82.2% | – | – | Dose-dependent effect | 36.8% | 13.1% | – | 83.9% | 55.3% | – | – | 57.63% | Dose-dependent effect
O=C1COc2cccc(c2)OCC(=O)NCc2ccc(cc2)-c2cccc(c2)-c2ccc(cc2)CN1 | 83.3% | 96.4% | – | 85.4% | – | – | – | – | – | Dose-dependent effect | 25.4% | 14.5% | – | 96.8% | 60.5% | – | – | 74.5% | Dose-dependent effect
O=C1COc2ccc3ccccc3c2-c2c(ccc3ccccc23)OCC(=O)NCc2ccc(cc2)-c2cccc(c2)-c2ccc(cc2)CN1 | 69.9% | 97.7% | – | 86.2% | – | – | 90.6% | – | – | Dose-dependent effect | 37% | 11.7% | – | 81.9% | 59.7% | – | – | 77.3% | Dose-dependent effect
O=C1NCc2ccc(cc2)-c2cccc(c2)-c2ccc(cc2)CNC(=O)c2cccc(c2)OCc2cc(cc([N+](=O)[O-])c2)COc2cccc1c2 | 82.1% | 95.5% | – | 75.97% | – | – | 85.66% | – | – | Dose-dependent effect | 49.6% | 23.6% | – | 94.4% | 73.1% | – | – | 66.71% | Dose-dependent effect
O=C1NCc2ccc(cc2)-c2cccc(c2)-c2ccc(cc2)CNC(=O)c2cccc(c2)OCc2ccccc2-c2ccccc2COc2cccc1c2 | 75.7% | 93.3% | <= 2 | 82.6% | <= 2 | <= 2 | 91.2% | <= 2 | <= 2 | Dose-dependent effect | 49.5% | 39.2% | <= 2 | 87.8% | 67.8% | <= 2 | <= 2 | 70.27% | Dose-dependent effect
O=C1COc2ccccc2-c2ccccc2OCC(=O)NCc2ccc(cc2)-c2cccc(c2)-c2ccc(cc2)CN1 | 81.4% | 96.03% | – | 85.65% | – | – | 93.77% | – | – | Dose-dependent effect | 61.9% | 40.5% | – | 98.2% | 76.2% | – | – | 74.2% | Dose-dependent effect
O=C1NCc2ccc(cc2)-c2cccc(c2)-c2ccc(cc2)CNC(=O)c2cccc(c2)OCc2ccccc2COc2cccc1c2 | 81.9% | 92.37% | – | 73.33% | – | – | 82.3% | – | – | Dose-dependent effect | 50.1% | 25.4% | – | 92.4% | 72.1% | – | – | 64.03% | Dose-dependent effect
C[C@]12C=CC(=O)C=C1CC[C@@H]1[C@@H]2[C@@H](O)C[C@@]2(C)[C@H]1CC[C@]2(O)C(=O)CO [PREDNISOLONE] | – | 91.01% | – | 57.94% | – | – | 84.87% | – | – | – | – | – | – | – | – | – | – | 46.03% | –

Reference: ChEMBL document CHEMBL2029287, “Synthesis, study on anti-arthritic, anti-inflammatory activity and toxicity of some novel bis-oxy cyclophane diamides” (Bioorg Med Chem Lett, 2012)
